Measurements: patent US20210386367A1, “DEVICES AND SYSTEMS FOR GASTROINTESTINAL MICROBIOME DETECTION AND MANIPULATION” (Progenity, Inc., priority 2018, published 2021)
≈ marks a conversion by molar mass, not a printed value.

Legend:
[1] = tested on: Streptococcus spp. spontaneous mutants; assay: organism not typed; type: cell-based
Experimental: Select isolates were subcultured onto agar containing drug at the selection concentration, were identified by MALDI, and were frozen for broth microdilution MIC testing as described below.
To determine whether colonies growing on drug selection plates had elevated MIC values to the selecting antibiotic, susceptibility testing by broth microdilution was conducted on isolated mutants following methodology recommended by CLSI (1), (2), and (3) “Performance Standards for Antimicrobial Susceptibility Testing; Twenty-Eighth Informational Supplement.,” CLSI document M100-S28, 2018.
All wells in columns 2 through 12 of a standard 96-well microdilution plate (Costar 3795) were filled with 150 μL of the appropriate diluent. Then, 300 μL of the test agents were added to the wells of column 1 of the plates at […] the highest final concentration to be tested. Serial two-fold dilutions were made across the rows through column 11 using the Biomek 2000. The wells of column 12 contained no drug and served as the growth control wells. This plate served as the “mother plate” from which selected MIC assay plates or “daughter plates” were made.
2 μL of drug solution from each well of a mother plate was added to each corresponding well of the daughter plate in a single step. A standardized inoculum of each aerobic test organism was prepared per CLSI methods to equal a 0.5 McFarland standard, followed by a dilution of 1:20 in MHB II. The plates were then inoculated with 10 μL of the diluted inoculum using the Biomek 2000 from low to high drug concentration, resulting in a final concentration of approximately 5×10^5 CFU/mL. An un-inoculated plate was incubated for the purpose of assessing solubility of the drug in the test media.
The plates for the aerobic tests were stacked 3-4 high, covered with a sterile lid on the top plate, and incubated aerobically at 35° C. for 18-20 hr. The MIC was recorded as the lowest concentration of drug that inhibited visible growth of the organism.

[2] = tested on: Streptococcus spp. spontaneous mutants; conditions: S. pneumoniae ATCC 49619; CLSI QC range shown in parentheses; cited from earlier work

CC[C@H]1OC(=O)[C@H](C)[C@@H](O[C@H]2C[C@@](C)(OC)[C@@H](O)[C@H](C)O2)[C@H](C)[C@@H](O[C@@H]2O[C@H](C)C[C@H](N(C)C)[C@H]2O)[C@](C)(O)C[C@@H](C)CN(C)[C@H](C)[C@@H](O)[C@]1(C)O [AZI]
MIC ([1]; S. agaloctiae ATCC 13813, selected on rifaximin 4X MIC, Colony A): 0.015 µg/mL (≈ 0.02 µM) | MIC ([1]; S. agaloctiae ATCC 13813, selected on rifaximin 4X MIC, Colony B): 0.015 µg/mL (≈ 0.02 µM) | MIC ([1]; S. agaloctiae ATCC 13813, selected on rifaximin 8X MIC, Colony A): 0.015 µg/mL (≈ 0.02 µM) | MIC ([1]; S. agaloctiae ATCC 13813, selected on rifaximin 8X MIC, Colony B): 0.015 µg/mL (≈ 0.02 µM) | MIC ([1]; S. agaloctiae ATCC 13813 Parent): 0.015 µg/mL (≈ 0.02 µM) | MIC ([1]; S. pneumoniae ATCC 49619, selected on rifaximin 4X MIC, Colony A): 0.03 µg/mL (≈ 0.0401 µM) | MIC ([1]; S. pneumoniae ATCC 49619, selected on rifaximin 4X MIC, Colony B): 0.03 µg/mL (≈ 0.0401 µM) | MIC ([1]; S. pneumoniae ATCC 49619, selected on rifaximin 8X MIC, Colony A): 0.03 µg/mL (≈ 0.0401 µM) | MIC ([1]; S. pneumoniae ATCC 49619, selected on rifaximin 8X MIC, Colony B): 0.03 µg/mL (≈ 0.0401 µM) | MIC ([1]; S. pneumoniae ATCC 49619 Parent): 0.06 µg/mL (≈ 0.0801 µM) | MIC ([1]; S. pyogenes ATCC 49399, selected on rifaximin 4X MIC, Colony A): 0.06 µg/mL (≈ 0.0801 µM) | MIC ([1]; S. pyogenes ATCC 49399, selected on rifaximin 4X MIC, Colony B): 0.06 µg/mL (≈ 0.0801 µM) | MIC ([1]; S. pyogenes ATCC 49399, selected on rifaximin 8X MIC, Colony A): 0.06 µg/mL (≈ 0.0801 µM) | MIC ([1]; S. pyogenes ATCC 49399, selected on rifaximin 8X MIC, Colony B): 0.06 µg/mL (≈ 0.0801 µM) | MIC ([1]; S. pyogenes ATCC 49399 Parent): 0.03 µg/mL (≈ 0.0401 µM) | MIC, CLSI QC range [2]: (0.06-0.25) μg/mL
